From patent US20210395210A1, “INHIBITION OF BACTERIAL CHAPERONIN SYSTEMS” (THE TRUSTEES OF INDIANA UNIVERSITY, priority 2018, published 2021)
Read-outs that look alike come from different tables or passages of the source.

Tests used:
[1] = system: Acinetobacter baumannii (ATCC 19606); assay: Bacterial proliferation assay, A. baumannii; assay type: cell-based
Excerpt: (§1) Bacterial Strains: Enterococcus faecium—(Orla-Jensen) Schleifer and Kilpper-Balz strain NCTC 7171 (ATCC 19434); Drug sensitive Staphylococcus aureus—Rosenbranch strain Seattle 1945 (ATCC 25923); Methicillin resistant S. aureus (MRSA)—Rosenbach strain HPV107 (ATCC BAA-44); Klebsiella Pneumonia—(Schroeter) Trevisan strain NCTC 9633 (ATCC 13883); Acinetobacter baumannii—Bouvet and Grimont strain 2208 (ATCC 19606); Pseudomonas aeruginosa—(Schroeter) Migula strain NCTC 10332 (ATCC 10145); Enterobacter cloacae—E. cloacae, subsp. cloacae (Jordan) Hormaeche and Edwards strain CDC 442-68 (ATCC 13047).
(§2) Growth Media: All bacteria were grown in Brain Heart Infusion (BHI) broth/agar (Becton, Dickinson and Company). All liquid cultures were grown in BHI media supplemented with 25 mg/L Ca^2+ and 12.5 mg/L Mg^2+ to mimic free physiological concentrations of these cations. A 10 mg/mL Ca^2+ stock solution was prepared by dissolving 3.68 g of CaCl2.2H2O in 100 mL of deionized water, and a 10 mg/mL Mg^2+ stock solution was prepared by dissolving 8.36 g of MgCl2.6H2O in 100 mL deionized water. Both stock solutions were filter-sterilized using 0.2 μm pore size cellulose-acetate filters. 2.5 mL of the sterile 10 mg/mL Ca^2+ stock and 1.25 mL of the sterile 10 mg/mL Mg^2+ stock solutions were added per 1 L of autoclaved BHI medium to obtain 25 mg/L Ca^2+ and 12.5 mg/L Mg^2+ ions, respectively.
(§3) General Assay Protocol: Stock bacterial cultures were streaked onto BHI agar plates and grown overnight at 37° C. Fresh aliquots of broth were inoculated with single bacterial colonies and the cultures were grown overnight at 37° C. with shaking (240 rpm) in cation adjusted BHI media. The following morning, the overnight cultures were sub-cultured (1:5 dilution) into fresh aliquots of cation adjusted BHI media and grown at 37° C. for 1-2 hours with shaking. After 2 h, cultures were diluted into fresh media to achieve final OD600 readings of 0.017. Aliquots of these diluted cultures (30 μL) were added to clear, flat-bottom, 384-well polystyrene plates that were stamped with 0.5 μL of test compounds in 20 μL media. […] Plates were sealed with “Breathe Easy” oxygen permeable membranes (Diversified Biotech) and left to incubate at 37° C. without shaking (stagnant assay). OD600 nm readings were taken at either 6-8 h (S. aureus, MRSA, K. pneumonia, E. cloacae, and P. aeruginosa) or 24 h (E. faecium and A. baumannii). A second set of baseline control plates were prepared analogously, but without any bacteria added, to correct for possible compound absorbance and/or precipitation. Plates were then read at 600 nm using a Molecular Devices SpectraMax Plus384 microplate reader. […] Results presented represent the averages of EC50 values obtained from at quadriplicate (duplicate of duplicate) replicates.

native MDH = molecular target: T1, native MDH (Sus scrofa, UniProt P00346); assay: Counter-screen for inhibition of native MDH enzymatic activity; assay type: biochemical, pig
T1 construct: soluble pig heart MDH from Roche, product #10127248001; purchased Roche 10127248001; host or cells: pig heart
T1 sequence (P00346 25-338): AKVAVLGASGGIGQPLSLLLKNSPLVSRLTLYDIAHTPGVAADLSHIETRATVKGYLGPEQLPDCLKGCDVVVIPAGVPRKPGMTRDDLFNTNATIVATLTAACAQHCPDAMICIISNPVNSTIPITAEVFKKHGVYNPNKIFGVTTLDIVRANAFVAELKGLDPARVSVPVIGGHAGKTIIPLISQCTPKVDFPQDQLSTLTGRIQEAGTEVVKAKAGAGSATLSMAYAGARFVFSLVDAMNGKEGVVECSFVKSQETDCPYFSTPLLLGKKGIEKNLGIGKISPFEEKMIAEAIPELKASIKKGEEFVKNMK
In short: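 Fully refolded MDH, produced by a 45 min, 37 °C GroEL/ES reaction and stopped with EDTA, was then dosed with compound (62.5 μM–29 nM, 8 points, 3-fold). Activity was read as A340 NADH decrease until ~90% consumed; reported IC50s are means of at least quadruplicate runs.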

[2] = system: Enterococcus faecium (ATCC 19434); assay: Bacterial proliferation assay, E. faecium; assay type: cell-based
Excerpt: as §1, §2, §3

[3] = system: Klebsiella Pneumonia (ATCC 13883); assay: Bacterial proliferation assay, K. pneumoniae; assay type: cell-based
Excerpt: as §1, §2, §3

[4] = system: Pseudomonas aeruginosa (ATCC 10145); assay: Bacterial proliferation assay, P. aeruginosa; assay type: cell-based
Excerpt: as §1, §2, §3

[5] = system: Methicillin resistant S. aureus (MRSA) (ATCC BAA-44); assay: Bacterial proliferation assay, MRSA; assay type: cell-based, Staphylococcus aureus; settings: Staphylococcus aureus
Excerpt: as §1, §2, §3

[6] = ATCC19606, 24 h, read-out: Bacterial Proliferation EC50 A. baumannii
[7] = ATCC19606, read-out: log(EC50) Bacterial Proliferation Assay A. baumannii (converted)
[8] = log of IC50 (μM scale), with standard deviation, read-out: log(IC50) Native MDH Reporter (converted)
[9] = read-out: Biochemical Assay IC50 Native MDH Reporter
[10] = ATCC19434, 24 h, read-out: Bacterial Proliferation EC50 E. faecium
[11] = ATCC19434, read-out: log(EC50) Bacterial Proliferation Assay C. faecium (converted)
[12] = ATCC13883, read-out: Bacterial Proliferation EC50 K. pneumoniae
[13] = ATCC13883, read-out: log(EC50) Bacterial Proliferation Assay K. pneumoniae (converted)
[14] = ATCC10145, read-out: Bacterial Proliferation EC50 P. aeruginosa
[15] = ATCC10145, read-out: log(EC50) Bacterial Proliferation Assay P. aeruginosa (converted)
[16] = read-out: Bacterial Proliferation EC50 S. aureus Resistant
[17] = read-out: log(EC50) Bacterial Proliferation Assay S. aureus Resistant (converted)
[18] = ATCC19606, OD600 at 24 h, read-out: Bacterial Proliferation EC50 A. baumannii
[19] = ATCC19606, log of EC50 (μM scale), with standard deviation, read-out: log(EC50) Bacterial Proliferation Assay A. baumannii (converted)
[20] = ATCC19434, OD600 at 24 h, read-out: Bacterial Proliferation EC50 E. faecium
[21] = ATCC19434, log of EC50 (μM scale), with standard deviation, read-out: log(EC50) Bacterial Proliferation Assay C. faecium (converted)
[22] = ATCC13883, OD600 at 6-8 h, read-out: Bacterial Proliferation EC50 K. pneumoniae
[23] = ATCC13883, log of EC50 (μM scale), with standard deviation, read-out: log(EC50) Bacterial Proliferation Assay K. pneumoniae (converted)
[24] = ATCC10145, OD600 at 6-8 h, read-out: Bacterial Proliferation EC50 P. aeruginosa
[25] = ATCC10145, log of EC50 (μM scale), with standard deviation, read-out: log(EC50) Bacterial Proliferation Assay P. aeruginosa (converted)
[26] = MRSA, log of EC50 (μM scale), with standard deviation, read-out: log(EC50) Bacterial Proliferation Assay S. aureus Resistant (converted)

Row | SMILES | EC50 [1, 6] | EC50 [1, 7] | IC50 (native MDH; [8]) | IC50 (native MDH; [9]) | EC50 [2, 10] | EC50 [2, 11] | EC50 [3, 12] | EC50 [3, 13] | EC50 [4, 14] | EC50 [4, 15] | EC50 [5, 16] | EC50 [5, 17] | EC50 [1, 18] | EC50 [1, 19] | EC50 [2, 20] | EC50 [2, 21] | EC50 [3, 22] | EC50 [3, 23] | EC50 [4, 24] | EC50 [4, 25] | further results
1 | O=C(Nc1cccc(Cl)c1)c1cc(Br)ccc1O [Compound 11, 5-Bromo-N-(3-chlorophenyl)-2-hydroxybenzamide] | > 100 µM | > 100 µM | > 63.1 µM | > 63 µM | > 100 µM | > 100 µM | > 100 µM | > 100 µM | > 100 µM | > 100 µM | 0.53 µM | 0.537 µM |  |  |  |  |  |  |  |  | 
2 | O=C(Nc1ccc(Sc2nc3ccccc3s2)c(Cl)c1)c1cccc(Br)c1O [Compound 2, N-(4-(Benzo[d]thiazol-2-ylthio)-3-chlorophenyl)-3-bromo-2-hydroxybenzamide] | 2.9 µM | 2.88 µM | > 63.1 µM | > 63 µM | 24 µM | 23.4 µM | > 100 µM | > 100 µM | > 100 µM | > 100 µM | 0.71 µM | 0.708 µM |  |  |  |  |  |  |  |  | inhibition of native MDH enzymatic activity (in words) (native MDH; false-positive counter-screen): inactive against the reporter enzymes
3 | O=C(Nc1ccc(Sc2nc3ccccc3s2)cc1)c1cc(Br)cc(Br)c1 [Compound 20, N-(4-(Benzo[d]thiazol-2-ylthio)phenyl)-3,5-dibromobenzamide] |  |  | > 63.1 µM | > 63 µM |  |  |  |  |  |  |  |  | > 100 µM | > 100 µM | > 100 µM | > 100 µM | > 100 µM | > 100 µM | > 100 µM | > 100 µM | EC50 [5, 26]: > 100 µM
4 | COc1c(Br)cc(Br)cc1C(=O)Nc1ccccc1 [Compound 41, 3,5-Dibromo-2-methoxy-N-phenylbenzamide] |  |  | > 63.1 µM | > 63 µM |  |  |  |  |  |  |  |  | > 100 µM | > 100 µM | > 100 µM | > 100 µM | > 100 µM | > 100 µM | > 100 µM | > 100 µM | EC50 [5, 26]: > 100 µM
5 | CN[C@H](CC(C)C)C(=O)N[C@H]1C(=O)N[C@@H](CC(N)=O)C(=O)N[C@H]2C(=O)N[C@H]3C(=O)N[C@H](C(=O)N[C@H](C(=O)O)c4cc(O)cc(O)c4-c4cc3ccc4O)[C@H](O)c3ccc(c(Cl)c3)Oc3cc2cc(c3O[C@@H]2O[C@H](CO)[C@@H](O)[C@H](O)[C@H]2O[C@H]2C[C@](C)(N)[C@H](O)[C@H](C)O2)Oc2ccc(cc2Cl)[C@H]1O [Vancomycin, vancomycin, reference compound] | > 100 µM | > 100 µM |  |  | 0.6 µM | 0.589 µM | > 100 µM | > 100 µM | > 100 µM | > 100 µM | 0.52 µM | 0.513 µM |  |  |  |  |  |  |  |  | IC50 (native MDH; Biochemical Assay IC50 Native MDH Reporter): > 63 µM; IC50 (native MDH; log(IC50) Native MDH Reporter, log of IC50 (μM scale), with standard deviation): > 63.1 µM
